In patent US12329158B2, “Large-scale methods of uniformly coating packaging surfaces with a volatile antimicrobial to preserve food freshness” (AGROFRESH INC., priority 2013, dated 2025):
In brackets after ≈: the same amount, converted by molar mass. Like-named read-outs stand apart in the source and are kept apart here.

Tests used:
Geotrichum candidum = experiment: Volatile MIC assay (Example 11); assay type: cell-based; details: G. candidum
Experimental: (§1) A 3-mL volume of full-strength Potato Dextrose Agar (PDA) is added to each well. After cooling, 1 μL of 1×10^5 spores per mL of Botrytis cinerea, Penicillium expansum, Alternaria alternata, Glomerella cingulata, Penicillium digitatum, Monilinia fruticola, Aspergillus brasiliensis, Colletotrichum acutatum, Fusarium sambucinum, Phytophthora capsici, Geotrichum candidum, Aspergillus niger, Diplodia gossypina or Diaporthe citrii suspension is spotted onto the center of the agar. A Whatman #1 filter disk (Cat. No. 1001-0155) is placed, in duplicate, on the underside of a polyethylene PCR plate sealing film. […] The headspace around the inoculum is then sealed inside the well by the film with the adhering disk containing the fungicide by inverting the plates over the treated disks and sealing to prevent any of the chemical from flaking from the disk and falling onto the inoculated agar. After 3 days of storage at 23° C., cultures are evaluated for percent growth relative to control.

Phytophthora capsici = experiment: Volatile MIC assay (Example 11); assay type: cell-based; details: P. capsici
Experimental: as §1

Alternaria alternata [1] = experiment: Volatile MIC assay (Example 11); assay type: cell-based; details: A. alternata
Experimental: as §1

Penicillium digitatum = experiment: Volatile MIC assay (Example 11); assay type: cell-based; details: P. digitatum
Experimental: as §1

Botrytis cinerea [2] = experiment: Volatile MIC assay (Example 11); assay type: cell-based; details: B. cinerea
Experimental: as §1

Fusarium sambucinum = experiment: Volatile MIC assay (Example 11); assay type: cell-based; details: F. sambucinum
Experimental: as §1

Penicillium expansum [3] = experiment: Volatile MIC assay (Example 11); assay type: cell-based; details: P. expansum
Experimental: as §1

Aspergillus brasiliensis = experiment: Volatile MIC assay (Example 11); assay type: cell-based; details: A. brasiliensis
Experimental: as §1

Diplodia gossypina = experiment: Volatile MIC assay (Example 11); assay type: cell-based; details: Lasiodiplodia theobromae, D. gossypina
Experimental: as §1

Monilinia fruticola = experiment: Volatile MIC assay (Example 11); assay type: cell-based; details: M. fruticola
Experimental: as §1

Aspergillus niger = experiment: Volatile MIC assay (Example 11); assay type: cell-based; details: A. niger
Experimental: as §1

Diaporthe citrii = experiment: Volatile MIC assay (Example 11); assay type: cell-based; details: D. citrii
Experimental: as §1

Colletotrichum acutatum = experiment: Volatile MIC assay (Example 11); assay type: cell-based; details: C. acutatum
Experimental: as §1

[4] = Solubility in methanol (remark in Example 25); assay type: physicochemical; details: room temperature
Penicillium expansum [5] = experiment: Blue mold on apple and pear, contact assay (Example 25); assay type: in vivo; details: Contact (dip); rate not given; day 3 at 21 C after 5 days at 1 C
Experimental: A 250 mL solution of each concentration is used to dip two inoculated fruits, one minute per fruit, performed in triplicate per rate. The dipped fruits are then placed back into the clamshells and then into the SnapWare container and incubated at 1° C. for 5 days. […] Volatile application of Compound A results in excellent inhibition of browning and sporulation, whereas all other active ingredients result in no or little inhibition.

Alternaria alternata [6] = experiment: Volatile MIC assay (Example 9); assay type: cell-based; details: 72 h, headspace concentration, 3 days at 23 C, read-out: MIC (mg/L) ALTEAL
Experimental: (§2) A 3-mL volume of full-strength Potato Dextrose Agar (PDA) is added to each well. […] Plates are inoculated immediately prior to volatile fungicide treatment. A Whatman #1 filter disk (Cat. No. 1001-0155) is placed, in duplicate, on the underside of a polyethylene PCR plate sealing film. […] The acetone is permitted to evaporate for 5 minutes. The headspace around the inoculum is then sealed inside the well by the film with the adhering disk containing the fungicide by inverting the plates over the treated disks and sealing to prevent any of the chemical from flaking from the disk and falling onto the inoculated agar.

Glomerella cingulata = experiment: Volatile MIC assay (Example 9); assay type: cell-based; details: Colletotrichum gloeosporioides, 72 h, headspace concentration, 3 days at 23 C, read-out: MIC (mg/L) GLOMCI
Experimental: as §2

Botrytis cinerea [7] = experiment: Volatile MIC assay (Example 9); assay type: cell-based; details: 72 h, headspace concentration, 3 days at 23 C, read-out: MIC (mg/L) BOTRCI
Experimental: as §2

Monilinia fructicola = experiment: Volatile MIC assay (Example 9); assay type: cell-based; details: 72 h, headspace concentration, 3 days at 23 C, read-out: MIC (mg/L) MONIFC
Experimental: as §2

Penicillium expansum [8] = experiment: Volatile MIC assay (Example 9); assay type: cell-based; details: 72 h, headspace concentration, 3 days at 23 C, read-out: MIC (mg/L) PENIEX
Experimental: as §2

[9] = tested on: C. krusei (or I. orientalis); experiment: In vitro volatile assay, yeast infection species (Example 27); assay type: cell-based, Issatchenkia orientalis; details: Pichia kudriavzevii
Experimental: More specifically, growth inhibition of yeast infection fungal species C. albicans and C. krusei (or I. orientalis) by volatile treatment of Compound 10 was assessed via a volatile assay.
Volatile assay: 6-well (16.5 mL volume per well) microtiter plates are used in an in vitro inhibition assay for Compound 10 (i.e., Compound A). A 7.5-mL volume of half strength PDA is added to each well. After drying, a mycelial plug (5 mm diameter) is aseptically obtained from actively growing cultures of C. albicans and C. krusei (or I. orientalis) and placed at the center of the plate with the mycelial side in contact with the agar. A Whatman #1 filter disk (Cat. No. 1001-325) is placed, in duplicate, on the underside of a polyethylene PCR plate sealing film. […] The acetone/methanol is permitted to evaporate for 5 minutes. The headspace around the inoculum is then sealed inside the well by the film with the adhering disk containing the fungicide and incubated inverted for 5 days at 28° C.

Compound: OB1OCc2cc(F)ccc21 [Compound A, 5-fluoro-1,3-dihydro-1-hydroxy-2,1-benzoxaborole]
- MIC (Geotrichum candidum): 8.9 µg/mL (≈ 58.6 µM)
- MIC (Phytophthora capsici): 1.1 µg/mL (≈ 7.24 µM)
- MIC (Alternaria alternata [1]): 2.2 µg/mL (≈ 14.5 µM)
- MIC (Penicillium digitatum): 2.2 µg/mL (≈ 14.5 µM)
- MIC (Botrytis cinerea [2]): 2.2 µg/mL (≈ 14.5 µM)
- MIC (Fusarium sambucinum): 1.1 µg/mL (≈ 7.24 µM)
- MIC (Penicillium expansum [3]): 1.1 µg/mL (≈ 7.24 µM)
- MIC (Aspergillus brasiliensis): 2.2 µg/mL (≈ 14.5 µM)
- MIC (Diplodia gossypina): 1.1 µg/mL (≈ 7.24 µM)
- MIC (Monilinia fruticola): 2.2 µg/mL (≈ 14.5 µM)
- MIC (Aspergillus niger): 2.2 µg/mL (≈ 14.5 µM)
- MIC (Diaporthe citrii): 2.2 µg/mL (≈ 14.5 µM)
- MIC (Colletotrichum acutatum): 4.4 µg/mL (≈ 29 µM)
- Solubility in methanol (in words) [4]: not soluble in methanol at room temperature
- Apple Browning (mm) (Penicillium expansum [5]): 9.9 mm
- Apple Sporulation (mm) (Penicillium expansum [5]): 2.3 mm
- Pear Browning (mm) (Penicillium expansum [5]): 18.9 mm
- Pear Sporulation (mm) (Penicillium expansum [5]): 8.4 mm
- MIC (Alternaria alternata [6]): < 0.6 mg/L
- MIC (Glomerella cingulata): < 0.6 mg/L
- MIC (Botrytis cinerea [7]): 2.2 mg/L (≈ 14.5 µM)
- MIC (Monilinia fructicola): < 0.6 mg/L
- MIC (Penicillium expansum [8]): 2.2 mg/L (≈ 14.5 µM)
- MIC ([9]; 120 h, read-out: minimum inhibitory concentration (MIC) for C. krusei): 35.7 µg/mL (≈ 235 µM)
- inhibition at 0.017 µg/mL ([9]; volatile, 0.017 mg/L, read-out: Growth Inhibition (%) C. krusei/I. orientalis): -1.3%
- inhibition at 0.035 µg/mL ([9]; volatile, 0.035 mg/L, read-out: Growth Inhibition (%) C. krusei/I. orientalis): -1.4%
- inhibition at 0.07 µg/mL ([9]; volatile, 0.07 mg/L, read-out: Growth Inhibition (%) C. krusei/I. orientalis): 0.5%
- inhibition at 0.1 µg/mL ([9]; volatile, 0.1 mg/L, read-out: Growth Inhibition (%) C. krusei/I. orientalis): 0.4%
- inhibition at 0.3 µg/mL ([9]; volatile, 0.3 mg/L, read-out: Growth Inhibition (%) C. krusei/I. orientalis): 1.2%
- inhibition at 0.6 µg/mL ([9]; volatile, 0.6 mg/L, read-out: Growth Inhibition (%) C. krusei/I. orientalis): -5.2%
- inhibition at […] ([9]; volatile, 1.1 mg/L, read-out: Growth Inhibition (%) C. krusei/I. orientalis): -0.2%
- inhibition at […] ([9]; volatile, 2.2 mg/L, read-out: Growth Inhibition (%) C. krusei/I. orientalis): 18.2%
- inhibition at […] ([9]; volatile, 4.5 mg/L, read-out: Growth Inhibition (%) C. krusei/I. orientalis): 22%
- inhibition at […] ([9]; volatile, 8.9 mg/L, read-out: Growth Inhibition (%) C. krusei/I. orientalis): 30.5%
